# Measurements as given in article PMC8284461, “Piperidine-4-Carboxamides Target DNA Gyrase in Mycobacterium abscessus” (Antimicrobial Agents and Chemotherapy, 2021).
# Read-outs that look alike come from different tables or passages of the source.
# How the values were obtained:
# [1] = tested on: M. abscessus subsp. abscessus ATCC 19977 MXF^r-1 (GyrA D96Y); test: MIC, resistant mutant; type: cell-based, Mycobacterium abscessus; conditions: Mycobacteroides abscessus, ATCC19977
# [2] = In vivo mouse pharmacokinetics; conditions: CD-1 mice
# Experimental: All animal experiments were approved by the Center for Discovery and Innovation, Institutional Animal Care and Use Committee, and were conducted in compliance with their guidelines. Female CD-1 mice were weighed and received a single dose of […] via the intravenous (i.v.) (5 mg/kg of body weight), oral (p.o.) (25 mg/kg), or subcutaneous (s.c.) (25 mg/kg) dosing route. The compound was formulated as a solution in 5% N,N-dimethylacetamide (DMA)/95% Milli-Q water vehicle. Blood samples were serially collected via the tail snip from each individual mouse at 0.017, 0.25, 1, 3, 5, and 8 h postdose following i.v. dosing and at 0.5, 1, 3, and 5 h postdose following p.o. and s.c. dosing. Blood (50 μl) was collected in capillary Microvette K2EDTA tubes (16.444.100; Sarstedt, Inc.) and kept on ice prior to centrifugation at 1,500 × g for 5 min. The supernatant (plasma) was transferred into a 96-well plate and stored at −80°C.
# Liquid chromatography-tandem mass spectrometry (LC-MS/MS) analysis was performed on a Sciex Applied Biosystems Qtrap 6500+ triple-quadrupole mass spectrometer coupled to a Shimadzu Nexera 2 high-pressure liquid chromatography (HPLC) system to quantify each drug in plasma. Neat 1 mg/ml DMSO stocks for 844-TFM were serial diluted in 50:50 acetonitrile (ACN)/water to create standard curves and quality control (QC) spiking solutions. Standards and QCs were created by adding 10 μl of spiking solutions to 90 μl of drug-free plasma (CD-1 K2EDTA Mouse; Bioreclamation IVT). Twenty microliters of control, standard, QC, or study sample were added to 200 μl of ACN/methanol (MeOH) 50:50 protein precipitation solvent containing internal standard (10 ng/ml verapamil). Extracts were vortexed for 5 min and centrifuged at 4,000 rpm for 5 min. One hundred microliters of supernatant was transferred for HPLC-MS/MS analysis and diluted with 100 μl of Milli-Q deionized water.
# Chromatography was performed on an Agilent Zorbax SB-C8 column (2.1 × 30 mm; particle size, 3.5 μm) using a reverse-phase gradient. Milli-Q deionized water with 0.1% formic acid was used for the aqueous mobile phase and 0.1% formic acid in ACN for the organic mobile phase. Multiple-reaction monitoring of precursor/product transitions in electrospray positive-ionization mode was used to quantify the analytes. The following multiple reaction monitoring (MRM) transitions were used for 844-TFM (459.10/133.00) and verapamil (455.4/165.2). Sample analysis was accepted if the concentrations of the quality control samples were within 20% of the nominal concentration. Data processing was performed using Analyst software (version 1.6.2; Applied Biosystems Sciex).
# [3] = tested on: M. abscessus subsp. abscessus ATCC 19977 biofilm; test: Antibiofilm activity, MBEC biofilm assay; type: cell-based, Mycobacterium abscessus; conditions: 1×, 4×, 8× MIC; surface-attached CFU after 2 and 3 days
# Experimental: The antibiofilm activity of 844 and 844-TMF was determined employing the MBEC 96-well Biofilm assay kit (19111; Innovotech, Edmonton, AB, Canada) as described previously ([15]) with minor modifications. Briefly, exponentially growing M. abscessus subsp. abscessus ATCC 19977 cultures were spun down at 3,200 × g for 10 min and washed with 7H9 broth without Tween 80 (‘7H9’). Bacteria were resuspended in ‘7H9’ to an OD600 of 0.0125, and 150 μl was dispensed into the wells of Innovotech 96-well plates. Pegs (protruding from the specialized lids of the Innovotech multiwell plates) were inserted into the bacterial suspensions in the wells, and the cultures were grown 24 h with shaking at 110 rpm at 37°C to allow attachment and growth of the bacteria on the surface of the pegs. […] Biofilm growth on the pegs was measured by CFU determination. The pegs were washed in 200 μl ‘7H9’ medium, removed, and placed in 1.7-ml microcentrifuge tubes (87003-294; VWR, Radnor, PA, USA) containing 500 μl PBS/Tween 80 (0.025%). The tubes were vortexed at 2,000 rpm for 90 s to detach and suspend the bacteria from the pegs before samples were serially diluted and plated onto 7H10 agar supplemented with 0.4% activated charcoal to determine CFU/peg.
# Plasma stability [4] = type: in vitro ADME, New Zealand white rabbits; conditions: rabbit plasma, 37°C, 1 μg/ml
# Experimental: (§1) The plasma stability assays were carried out using plasma from female CD-1 mice, New Zealand white rabbits, rhesus monkeys, and humans containing K2EDTA anticoagulant (Bioreclamation). Stability samples consisted of 5 μl of stock compound solution in 50:50 ACN/water and 95 μl of plasma to a final concentration of 1 μg/ml. The samples were incubated at 37°C with shaking; 10 μl of plasma was removed at each time point and combined with 100 μl of ACN/methanol 50:50 protein precipitation solvent containing internal standard (10 ng/ml verapamil). Chromatography for metabolite identification was performed the same as specified for pharmacokinetic sample analysis. Full scan total ion chromatograms (TIC) of plasma extracts were acquired using a Q Exactive high-resolution mass spectrometer (QE-HRMS) at 70,000 mass resolution. Thermo Fisher Compound Discoverer software was used to assist in identifying the 844-TFM metabolites from the QE-HRMS TIC mass spectrum. Figure S2 in the supplemental material illustrates the extracted ion chromatograms (XIC) of 844-TFM and the metabolites using 5 ppm mass accuracy before and after 12 h of incubation in mouse plasma.
# Plasma stability [5] = type: in vitro ADME, CD-1 mice; conditions: mouse plasma, 37°C, 1 μg/ml
# Experimental: as §1
# [6] = biological target: recombinant M. abscessus wild-type DNA gyrase (Mycobacteroides abscessus, UniProt B1ME45+B1ME58); test: biochemical; design: species or system Mycobacterium abscessus
# Plasma stability [7] = type: in vitro ADME, humans; conditions: human plasma, 37°C, 1 μg/ml
# Experimental: as §1
# [8] = Mouse liver microsome stability; type: in vitro ADME
# Experimental: Kinetic solubility, parallel artificial membrane permeability assay (PAMPA) permeability, and stability in the mouse liver microsome assay were performed by BioDuro (Shanghai, China) according to standard protocols.
# [9] = female, mouse, plasma, iv, i.v. 5 mg/kg, average (SD)
# Chain of recombinant M. abscessus wild-type DNA gyrase (B1ME58 entry or part of it): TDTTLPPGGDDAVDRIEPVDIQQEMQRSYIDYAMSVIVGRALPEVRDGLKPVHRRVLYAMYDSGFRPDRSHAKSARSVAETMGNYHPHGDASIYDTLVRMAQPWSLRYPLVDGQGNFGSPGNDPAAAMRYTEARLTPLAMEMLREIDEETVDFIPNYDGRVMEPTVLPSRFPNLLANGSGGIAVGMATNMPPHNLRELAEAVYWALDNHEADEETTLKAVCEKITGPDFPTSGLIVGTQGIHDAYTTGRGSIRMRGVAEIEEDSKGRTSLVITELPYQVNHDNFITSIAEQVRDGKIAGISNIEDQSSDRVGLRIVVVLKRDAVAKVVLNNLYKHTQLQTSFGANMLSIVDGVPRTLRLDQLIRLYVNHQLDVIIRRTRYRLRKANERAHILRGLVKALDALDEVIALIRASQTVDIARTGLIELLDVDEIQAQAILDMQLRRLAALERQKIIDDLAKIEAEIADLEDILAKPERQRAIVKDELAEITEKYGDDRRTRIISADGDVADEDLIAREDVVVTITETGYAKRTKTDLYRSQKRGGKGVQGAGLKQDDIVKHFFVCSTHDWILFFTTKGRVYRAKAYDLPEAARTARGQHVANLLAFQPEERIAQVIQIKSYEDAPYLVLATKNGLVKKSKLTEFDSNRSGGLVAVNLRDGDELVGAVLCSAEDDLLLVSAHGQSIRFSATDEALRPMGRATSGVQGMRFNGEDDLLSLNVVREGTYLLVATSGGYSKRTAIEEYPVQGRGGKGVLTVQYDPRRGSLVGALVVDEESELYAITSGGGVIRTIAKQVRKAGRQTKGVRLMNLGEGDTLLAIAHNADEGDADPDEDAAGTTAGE
# Chain of recombinant M. abscessus wild-type DNA gyrase (B1ME45 entry or part of it): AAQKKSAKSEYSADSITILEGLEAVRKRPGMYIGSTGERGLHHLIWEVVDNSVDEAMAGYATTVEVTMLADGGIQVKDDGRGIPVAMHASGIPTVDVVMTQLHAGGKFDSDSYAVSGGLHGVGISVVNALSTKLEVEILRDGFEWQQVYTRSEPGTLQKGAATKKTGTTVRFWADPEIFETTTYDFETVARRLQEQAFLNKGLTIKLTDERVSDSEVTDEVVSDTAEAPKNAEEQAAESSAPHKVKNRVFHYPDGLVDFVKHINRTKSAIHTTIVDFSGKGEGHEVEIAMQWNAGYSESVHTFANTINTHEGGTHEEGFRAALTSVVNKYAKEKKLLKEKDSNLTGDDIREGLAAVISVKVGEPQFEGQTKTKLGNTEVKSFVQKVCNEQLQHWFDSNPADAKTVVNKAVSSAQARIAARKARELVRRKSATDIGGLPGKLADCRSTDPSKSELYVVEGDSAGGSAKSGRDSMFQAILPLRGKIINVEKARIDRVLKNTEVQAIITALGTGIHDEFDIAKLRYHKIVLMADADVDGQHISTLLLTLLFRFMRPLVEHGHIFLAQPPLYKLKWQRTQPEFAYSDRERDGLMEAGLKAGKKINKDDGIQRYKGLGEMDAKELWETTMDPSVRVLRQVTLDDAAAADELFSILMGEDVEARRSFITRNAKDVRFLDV
structure (smiles),measurement,setting,value
COc1ccc2nccc(NC(=O)C3CCN(CCc4ccc(C(F)(F)F)cc4)CC3)c2n1 [844-TFM],MIC,[1],6 µM
same,V,"[2]; i.v. 5 mg/kg, average (SD)",0.811 (0.221) liter/kg
same,clearance,[2]; [9],10.6 mL/min/kg
same,k el,[2]; [9],0.000192 s⁻¹
same,AUC,"[2]; female, mouse, plasma, iv, i.v. 5 mg/kg, average (SD), read-out: AUC i.v.",5630 ng·h/mL
same,half-life,"[2]; female, mouse, plasma, iv, i.v. 5 mg/kg, average (SD), read-out: elimination half-life (converted)",61.8 min
same,bioavailability,"[2]; female, mouse, plasma, oral, p.o. 25 mg/kg vs i.v. 5 mg/kg, read-out: p.o. bioavailability",0.05 to 0.2%
same,bioavailability,"[2]; female, mouse, plasma, po, p.o. 25 mg/kg vs i.v. 5 mg/kg, read-out: p.o. bioavailability",0.15%
same,AUC,"[2]; female, mouse, plasma, po, p.o. 25 mg/kg, average (SD), read-out: AUC p.o.",58 ng·h/mL
same,bioavailability,"[2]; female, mouse, plasma, sc, s.c. 25 mg/kg vs i.v. 5 mg/kg, read-out: s.c. bioavailability",3%
same,AUC,"[2]; female, mouse, plasma, sc, s.c. 25 mg/kg, average (SD), read-out: AUC s.c.",1170 ng·h/mL
same,bactericidal activity against M. abscessus grown as biofilm,[3],bactericidal
same,remaining after 24 h,Plasma stability [4],approximately 80%
same,stability in plasma,Plasma stability [5],rapidly degraded
same,IC50 fold lower than the IC50 of parental 844,[6],2.4 fold
same,IC50,"[6]; wild-type DNA gyrase, relaxed pBR322 substrate, read-out: IC50, supercoiling activity",1900 nM
same,remaining after 24 h,Plasma stability [7],approximately 80%
same,CLint scaled,"[8]; liver microsomes, mouse hepatic microsomes, scaled",1050 mL/min/kg
same,microsomal CLint,"[8]; liver microsomes, mouse hepatic microsomes, read-out: In vitro CLint",267 µL/min/mg
same,t1/2,"[8]; mouse hepatic microsomes, in vitro",5.2 min
same,CLhepatic,"[8]; mouse hepatic microsomes, scaled",82.9 mL/min/kg
same,half-life,"[8]; mouse, liver microsomes, mouse hepatic microsomes, in vitro",5 min
same,predicted extraction ratio,"[8]; mouse, clearance vs hepatic blood flow of 90 ml/min/kg",~1
